These results are taken from US20240400554A1, “MONOACYLGLYCEROL LIPASE (MAGL) INHIBITORS FOR THE TREATMENT OF PAIN AND RELATED MEDICAL DISORDERS” (Humanwell Pharmaceutical US, Inc., priority 2023, published 2024).

This test has as its system 2% formalin model in SD rats. The experiment in a line: Formalin-induced pain model. It counts as in vivo. Conditions: 3 mg/kg p.o.; for inhibition in vivo at 3 mg/kg: Rattus norvegicus, po, 1 h, movements (lifts and licks) 0-60 min after formalin, read-out: MPE % (Maximum Possible Effect). As for the experimental part: A diluted formalin solution is injected subcutaneously into the hind paw of rats using a microsyringe, creating a continuous noxious stimulus that induces spontaneous pain behaviors in the animals. The experiment can record the number of lifts and licks of the rat's foot through an autonomous movement analyzer to assess the degree of pain. This experiment uses a 2% formalin model in SD rats and tests the analgesic activity of compounds by oral administration. After injecting 2% formalin, the number of movements (lifts and licks of the injected foot) from 0-60 min after injecting the formalin solution is recorded and analyzed.
The Maximum Possible Effect (MPE %) is calculated as a percentage:
Note: (1) MPE % for each group is calculated with sham group MPE=100% and vehicle group MPE=0% as standards. (2) Movement counts of the sham group are subtracted to exclude the impact of background noise on the experiment. (2) “Sham” represents the average value of the sham group; “Vehicle-Sham” represents the average value of the vehicle group minus the sham group.
Results are presented as mean values with standard error. Data from each group are analyzed and graphed using GraphPad Prism 8 software. Statistical analysis is conducted using one-way ANOVA to determine statistical differences between groups, with t-tests used for comparisons between two groups. A p-value <0.05 is considered statistically significant.

`O=C(OC(C(F)(F)F)C(F)(F)F)N1CCN(Cc2ccc(C(F)(F)F)cc2N2CCCC2)CC1` [ABX-1431, reference compound]: the “Experimental Results (analgesic activity in the formalin model)” value is on record as “effective” and the inhibition in vivo at 3 mg/kg came out at 33%.
Taken in the same sequence, the figures for `O=C(OC(CO)C(F)(F)F)N1CC2C(C1)C2c1cc2n(n1)-c1ccc(F)cc1CC2` (stereo not shown) [Compound 12, 1,1,1-trifluoro-3-hydroxypropan-2-yl 6-(7-fluoro-4,5-dihydropyrazolo[1,5-a]quinolin-2-yl)-3-azabicyclo[3.1.0]hexane-3-carboxylate] were “effective” and 64%.
Taken in the same sequence, the figures for `O=C(OC(CO)C(F)(F)F)N1CCC(c2nn3c(c2Cl)CCc2cc(F)ccc2-3)CC1` (stereo not shown) [Compound 4, 1,1,1-trifluoro-3-hydroxypropan-2-yl 4-(3-chloro-7-fluoro-4,5-dihydropyrazolo[1,5-a]quinolin-2-yl)piperidine-1-carboxylate] were “effective” and 51%.
In the case of `O=C(OC(C(F)(F)F)C(F)(F)F)N1CCC(c2nc3n(n2)-c2ccc(F)cc2CC3)CC1` [Compound 24, 1,1,1,3,3,3-hexafluoropropan-2-yl 4-(7-fluoro-4,5-dihydro-[1,2,4]triazolo[1,5-a]quinolin-2-yl)piperidine-1-carboxylate], the “Experimental Results (analgesic activity in the formalin model)” value is “effective” and the inhibition in vivo at 3 mg/kg worked out at 50%.
Taken in the same sequence, the figures for `O=C(OC(CO)C(F)(F)F)N1CCC(c2nn3c(c2F)CCc2cc(F)ccc2-3)CC1` (stereo not shown) [Compound 3, 1,1,1-trifluoro-3-hydroxypropan-2-yl 4-(3,7-difluoro-4,5-dihydropyrazolo[1,5-a]quinolin-2-yl)piperidine-1-carboxylate] were “effective” and 61%.
